16 compounds from PubChem BioAssay (NCI) can be followed below.

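Test compounds were applied to cells in 96-well plates for 48 hours at 5 doses. TGI is the concentration that stops growth completely.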 Where a SMILES comes first, the peptide text is derived from it. Side-chain parts run from the residue outwards. The star is where a group is joined. Cbz = O=C(OCc1ccccc1)*; Boc = CC(C)(C)OC(=O)*

Test systems include ACHN renal; SW-620 colon; SK-OV-3 ovarian; UACC-62 melanoma; HL-60(TB) leukemia; RXF 393 renal; NCI-H460 lung; OVCAR-5 ovarian; MCF7 breast; HS 578T breast.
Holding throughout (test): NCI anticancer screen, dose series, 48 h

In the case of `C=CC[C@@]1(C#N)C[C@H](C[C@]2(C#N)C[C@H](CCl)OC(C)(C)O2)OC(C)(C)O1`, the TGI in the test with ACHN renal, in the test with SW-620 colon, with SK-OV-3 ovarian, in the test on UACC-62 melanoma, in the test with HL-60(TB) leukemia and in the test on RXF 393 renal was more than 100 µM throughout. In addition, the TGI in the test on NCI-H460 lung and in the test on OVCAR-5 ovarian was more than 100 µM throughout.
`CC1=NN(C(=O)c2ccccc2)C(=O)C1N=Nc1ccccc1C(=O)O` (stereo not given): the TGI with SW-620 colon was more than 100 µM; in the test on SK-OV-3 ovarian, more than 100 µM; in the test with UACC-62 melanoma, 22.9 µM; in the test on HL-60(TB) leukemia it was more than 33.2 µM; in the test on RXF 393 renal it was more than 100 µM; with MCF7 breast, 19 µM. Besides, the TGI with NCI-H460 lung and in the test with OVCAR-5 ovarian was more than 100 µM in each case.
Turning to `CCN(CC)CCNC(=O)c1cc2cc(NC(=O)c3cc4cc(NC(=O)c5cc6cc([N+](=O)[O-])ccc6[nH]5)ccc4[nH]3)ccc2[nH]1`, the TGI in the test with ACHN renal, in the test with SW-620 colon, with SK-OV-3 ovarian, in the test with UACC-62 melanoma, in the test on HS 578T breast and in the test on RXF 393 renal was more than 100 µM in each case. The TGI with NCI-H460 lung and in the test on OVCAR-5 ovarian was more than 100 µM in each case.
As to `CC(C)(CO)NC(=O)c1cccc(C(=O)NC(C)(C)CO)c1Br`, the TGI in the test on ACHN renal, in the test on SW-620 colon, in the test with UACC-62 melanoma, with HL-60(TB) leukemia, in the test on RXF 393 renal and in the test with MCF7 breast was more than 100 µM throughout. Also, the TGI in the test on NCI-H460 lung and in the test with OVCAR-5 ovarian was more than 100 µM each time.
`O=C(/C=C/c1ccsc1)c1ccc(Cl)s1`: the TGI was more than 100 µM in the test with ACHN renal; 55.5 µM with SW-620 colon; more than 100 µM in the test on SK-OV-3 ovarian; more than 100 µM in the test with UACC-62 melanoma; 57.2 µM in the test on HL-60(TB) leukemia; more than 100 µM with HS 578T breast. Besides, the TGI with MCF7 breast and with NCI-H460 lung was more than 100 µM throughout.
As for `CCOC(=O)CC(=Nc1cc(C)on1)N(CC)CC`, the TGI in the test on ACHN renal, in the test with SW-620 colon, with SK-OV-3 ovarian, in the test on UACC-62 melanoma, in the test on NCI-H460 lung and in the test on OVCAR-5 ovarian was more than 100 µM each time.
`Cc1cc(O)c(/C=N/C(=O)NN)c(=O)o1`: the TGI in the test on ACHN renal, in the test on SW-620 colon, in the test on SK-OV-3 ovarian, in the test on UACC-62 melanoma, with HS 578T breast and with RXF 393 renal was more than 100 µM throughout. Besides, the TGI with MCF7 breast, in the test on NCI-H460 lung and in the test with OVCAR-5 ovarian was more than 100 µM each time.
For the compound `COc1ccc2c(c1)-c1c(c3ccccc3n1CCN1CCOCC1)CC2`, the TGI with ACHN renal was more than 100 µM; in the test with SW-620 colon, more than 100 µM; in the test with SK-OV-3 ovarian, more than 100 µM; in the test with UACC-62 melanoma it was 49.4 µM; in the test with HS 578T breast, 32.3 µM; in the test with MCF7 breast it was more than 100 µM. Further, the TGI with NCI-H460 lung is 34.2 µM; with OVCAR-5 ovarian, more than 100 µM.
Consider `COc1ccc2c(c1)Cc1c-2[nH]c2cc3c(cc2c1=O)OCO3`, for which the TGI was 30.5 µM in the test with ACHN renal; more than 100 µM in the test with SW-620 colon; 95.8 µM in the test on SK-OV-3 ovarian; 22.8 µM with UACC-62 melanoma; 29.2 µM with HL-60(TB) leukemia; 19.5 µM in the test on RXF 393 renal. Moreover, in the test with NCI-H460 lung, the TGI stood at 35 µM.
In the case of `COC(=O)C[C@](O)(CCC(C)(C)O)C(=O)O[C@@H]1C(OC)=C[C@]23CCCN2CCc2cc4c(cc2[C@H]13)OCO4`, the TGI with SK-OV-3 ovarian was 0.915 µM; with UACC-62 melanoma it was 1.12 µM; in the test with HL-60(TB) leukemia, 0.743 µM; with RXF 393 renal it was 0.518 µM; in the test with MCF7 breast, 0.113 µM; in the test on NCI-H460 lung, 0.0793 µM. The compound further registered a TGI in the test with OVCAR-5 ovarian of 1.08 µM.
Regarding `C[n+]1c(-c2ccc(/C=N/Nc3n[nH]c(=S)n3N/N=C/c3ccc(-c4cn5ccccc5[n+]4C)cc3)cc2)cn2ccccc21`, the TGI with ACHN renal, in the test on SW-620 colon, in the test on SK-OV-3 ovarian, with HL-60(TB) leukemia, in the test with HS 578T breast and in the test on MCF7 breast was more than 100 µM throughout. Also, the TGI in the test on NCI-H460 lung and in the test with OVCAR-5 ovarian was more than 100 µM each time.
Consider `CN(C)C(=S)/N=c1\ssc(=S)n1Cc1ccccn1`, for which the TGI in the test on ACHN renal was more than 100 µM; with SW-620 colon, more than 100 µM; in the test on SK-OV-3 ovarian it was more than 100 µM; in the test on UACC-62 melanoma, 11 µM; with HL-60(TB) leukemia, more than 19.8 µM; with RXF 393 renal it was 20 µM. Further, the TGI in the test with NCI-H460 lung was 16.8 µM; with OVCAR-5 ovarian, more than 100 µM.
On to `CCOC(=O)C1CCn2c(nc3c(=O)n(C)c(=O)n(C)c32)S1` (stereo not given), for which the TGI in the test on ACHN renal, with SW-620 colon, in the test on SK-OV-3 ovarian, in the test with UACC-62 melanoma, with HL-60(TB) leukemia and in the test with RXF 393 renal was more than 100 µM throughout. Also, the TGI with NCI-H460 lung and in the test on OVCAR-5 ovarian was more than 100 µM each time.
As to `Cc1ccc(C(=O)NC(C)C)cc1N=NN(C)C`, the TGI in the test with ACHN renal, in the test on SW-620 colon, in the test with UACC-62 melanoma and in the test on NCI-H460 lung was more than 100 µM each time.
With `CC(C)CC(NC(=O)OCc1ccccc1)C(=O)NCCCCC(NC(=O)C(CCCCNC(=O)C(CC(C)C)NC(=O)OCc1ccccc1)NC(=O)C(CCCCNC(=O)C(CC(C)C)NC(=O)OCc1ccccc1)NC(=O)C(CCCCNC(=O)C(CC(C)C)NC(=O)OCc1ccccc1)NC(=O)OC(C)(C)C)C(=O)O` (stereo not given) (Boc-K([Leu-Cbz])K([Leu-Cbz])K([Leu-Cbz])K([Leu-Cbz])-OH; configuration not given here), the TGI in the test on ACHN renal, in the test with SW-620 colon, with UACC-62 melanoma, in the test on HL-60(TB) leukemia, in the test with MCF7 breast and with NCI-H460 lung was more than 25 µM throughout. The same compound gave a TGI with OVCAR-5 ovarian of more than 25 µM.
Take `Cc1cc(C)c(N)c(C)c1N`: the TGI with ACHN renal, with SW-620 colon, in the test with SK-OV-3 ovarian, in the test with UACC-62 melanoma, with HL-60(TB) leukemia and with RXF 393 renal was more than 100 µM each time. In addition, the TGI in the test with NCI-H460 lung and in the test on OVCAR-5 ovarian was more than 100 µM throughout.
